Reference: patent US20210116467A1, “DIABETES-RELATED BIOMARKERS AND TREATMENT OF DIABETES-RELATED CONDITIONS” (priority 2015, published 2021)

System: GLP1
Test: GLP1 production induced by treatment with bile acids (immunofluorescence staining of TGR5 and GLP1 in CCL-241 cells)
Assay type: cell-based
Details: CCL-241 human small intestinal normal epithelial cells; 100 μM bile acid; compared to wild type (WT) and DMSO controls; FIG. 13
Method: Several bile acids were tested for their ability to increase production of GLP-1. Without being bound by theory, the inventor believes that compounds which increase the production of GLP-1 provide an anti-diabetic effect.
CCL-241, a human small intestinal normal epithelial cell were treated with 100 μM of different bile acids and compared to that of wild type (WT) and DMSO treatment as controls. The expression of TGR5 and GLP1 were detected by Immunofluorescence staining.

SMILES	GLP1-promotion effect (expression of GLP1 detected by immunofluorescence staining)
C[C@H](CCC(=O)O)[C@H]1CC[C@H]2[C@@H]3C[C@H](O)[C@@H]4C[C@H](O)CC[C@]4(C)[C@H]3CC[C@]12C [HDCA, Hyodeoxycholic acid]	strongest GLP1-promotion effect
O=C(O)C(Cl)(Cl)Cl [TCA]	substantial GLP-1 promotion effect
C[C@H](CCC(=O)NCC(=O)O)[C@H]1CC[C@H]2[C@@H]3C[C@H](O)[C@@H]4C[C@H](O)CC[C@]4(C)[C@H]3CC[C@]12C [GHDCA, Glycohyodeoxycholic acid]	strongest GLP1-promotion effect
C[C@H](CCC(=O)NCCS(=O)(=O)[O-])[C@H]1CC[C@H]2[C@@H]3C[C@H](O)[C@@H]4C[C@H](O)CC[C@]4(C)[C@H]3CC[C@]12C.[Na+] [THDCA, Taurohyodeoxycholic acid]	strongest GLP1-promotion effect
C[C@H](CCC(=O)O)[C@H]1CC[C@H]2[C@@H]3CC[C@@H]4C[C@H](O)CC[C@]4(C)[C@H]3C[C@H](O)[C@]12C [DCA]	substantial GLP-1 promotion effect
C[C@H](CCC(=O)O)[C@H]1CC[C@H]2[C@@H]3[C@H](O)[C@H](O)[C@@H]4C[C@H](O)CC[C@]4(C)[C@H]3CC[C@]12C [HCA, Hyocholic acid]	strongest GLP1-promotion effect
